Source: PubChem BioAssay (NCI)
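Protocol summary: plate cells (96-well), add compound at 5 concentrations, incubate 48 h, interpolate endpoints linearly. Abbreviation: GI50, concentration required for 50% inhibition of growth. TGI marks complete inhibition of growth.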

Columns and labels:
Experiment in all cases: NCI tumour cell line growth inhibition, 48 h
SK-MEL-5 melanoma = system: SK-MEL-5 melanoma
SF-539 CNS = system: SF-539 CNS
NCI-H522 lung = system: NCI-H522 lung
SK-MEL-28 melanoma = system: SK-MEL-28 melanoma
OVCAR-5 ovarian = system: OVCAR-5 ovarian
HCC-2998 colon = system: HCC-2998 colon
LOX IMVI melanoma = system: LOX IMVI melanoma
PC-3 prostate = system: PC-3 prostate
NCI-H23 lung = system: NCI-H23 lung
OVCAR-3 ovarian = system: OVCAR-3 ovarian
SR leukemia = system: SR leukemia
A549 NSCLC = system: A549 NSCLC
RXF 393 renal = system: RXF 393 renal
UACC-257 melanoma = system: UACC-257 melanoma
TK-10 renal = system: TK-10 renal
NCI-H460 lung = system: NCI-H460 lung
SN12C renal = system: SN12C renal
MDA-MB-435 = system: MDA-MB-435
HCT-15 colon = system: HCT-15 colon
EKVX NSCLC = system: EKVX NSCLC
SNB-75 CNS = system: SNB-75 CNS
IGROV1 ovarian = system: IGROV1 ovarian
NCI/ADR-RES ovarian = system: NCI/ADR-RES ovarian
SW-620 colon = system: SW-620 colon
DU-145 prostate = system: DU-145 prostate
U251 CNS = system: U251 CNS
MALME-3M melanoma = system: MALME-3M melanoma
HT29 colon = system: HT29 colon
HCT-116 colon = system: HCT-116 colon
CAKI-1 renal = system: CAKI-1 renal
UACC-62 melanoma = system: UACC-62 melanoma
NCI-H226 lung = system: NCI-H226 lung
HL-60(TB) leukemia = system: HL-60(TB) leukemia
SF-268 CNS = system: SF-268 CNS
OVCAR-8 ovarian = system: OVCAR-8 ovarian
M14 melanoma = system: M14 melanoma
SNB-19 CNS = system: SNB-19 CNS
BT-549 breast = system: BT-549 breast
KM12 colon = system: KM12 colon
ACHN renal = system: ACHN renal
HS 578T breast = system: HS 578T breast
UO-31 renal = system: UO-31 renal
T-47D breast = system: T-47D breast
SK-MEL-2 melanoma = system: SK-MEL-2 melanoma
MCF7 breast = system: MCF7 breast
K-562 leukemia = system: K-562 leukemia
HOP-62 NSCLC = system: HOP-62 NSCLC
SF-295 CNS = system: SF-295 CNS
MDA-MB-231 breast = system: MDA-MB-231 breast
SK-OV-3 ovarian = system: SK-OV-3 ovarian
786-0 renal = system: 786-0 renal
HOP-92 NSCLC = system: HOP-92 NSCLC
RPMI-8226 leukemia = system: RPMI-8226 leukemia
MOLT-4 leukemia = system: MOLT-4 leukemia
COLO 205 colon = system: COLO 205 colon
CCRF-CEM leukemia = system: CCRF-CEM leukemia
OVCAR-4 ovarian = system: OVCAR-4 ovarian

COc1cc(OC)cc(-c2ccc(-c3ccc(C(=N)N)cn3)s2)c1
GI50 (SK-MEL-5 melanoma): 1.77 µM | TGI (SK-MEL-5 melanoma): 3.16 µM | GI50 (SF-539 CNS): 1.71 µM | TGI (SF-539 CNS): 3.13 µM | GI50 (NCI-H522 lung): 2.27 µM | TGI (NCI-H522 lung): 5.59 µM | GI50 (SK-MEL-28 melanoma): 1.84 µM | TGI (SK-MEL-28 melanoma): 3.43 µM | GI50 (OVCAR-5 ovarian): 1.69 µM | TGI (OVCAR-5 ovarian): 3.13 µM | GI50 (HCC-2998 colon): 1.84 µM | TGI (HCC-2998 colon): 3.48 µM | GI50 (LOX IMVI melanoma): 1.7 µM | TGI (LOX IMVI melanoma): 3.2 µM | GI50 (PC-3 prostate): 1.88 µM | TGI (PC-3 prostate): 3.63 µM | GI50 (NCI-H23 lung): 1.78 µM | TGI (NCI-H23 lung): 3.5 µM | GI50 (OVCAR-3 ovarian): 1.77 µM | TGI (OVCAR-3 ovarian): 3.2 µM | GI50 (SR leukemia): 3.51 µM | TGI (SR leukemia): 10.9 µM | GI50 (A549 NSCLC): 2.19 µM | TGI (A549 NSCLC): 4.69 µM | GI50 (RXF 393 renal): 1.83 µM | TGI (RXF 393 renal): 3.34 µM | GI50 (UACC-257 melanoma): 2.29 µM | TGI (UACC-257 melanoma): 4.49 µM | GI50 (TK-10 renal): 2.06 µM | TGI (TK-10 renal): 4.09 µM | GI50 (NCI-H460 lung): 1.87 µM | TGI (NCI-H460 lung): 3.45 µM | GI50 (SN12C renal): 1.78 µM | TGI (SN12C renal): 3.8 µM | GI50 (MDA-MB-435): 1.73 µM | TGI (MDA-MB-435): 3.15 µM | GI50 (HCT-15 colon): 1.81 µM | TGI (HCT-15 colon): 3.49 µM | GI50 (EKVX NSCLC): 2.58 µM | TGI (EKVX NSCLC): 7.17 µM | GI50 (SNB-75 CNS): 1.44 µM | TGI (SNB-75 CNS): 2.86 µM | GI50 (IGROV1 ovarian): 1.9 µM | TGI (IGROV1 ovarian): 3.73 µM | GI50 (NCI/ADR-RES ovarian): 3.27 µM | TGI (NCI/ADR-RES ovarian): 11.6 µM | GI50 (SW-620 colon): 1.91 µM | TGI (SW-620 colon): 3.8 µM | GI50 (DU-145 prostate): 1.79 µM | TGI (DU-145 prostate): 3.22 µM | GI50 (U251 CNS): 1.8 µM | TGI (U251 CNS): 3.49 µM | GI50 (MALME-3M melanoma): 1.87 µM | TGI (MALME-3M melanoma): 3.56 µM | GI50 (HT29 colon): 2.11 µM | TGI (HT29 colon): 4.89 µM | GI50 (HCT-116 colon): 1.9 µM | TGI (HCT-116 colon): 3.64 µM | GI50 (CAKI-1 renal): 1.73 µM | TGI (CAKI-1 renal): 3.2 µM | GI50 (UACC-62 melanoma): 1.85 µM | TGI (UACC-62 melanoma): 3.54 µM | GI50 (NCI-H226 lung): 10.1 µM | TGI (NCI-H226 lung): 27.8 µM | GI50 (HL-60(TB) leukemia): 2.06 µM | TGI (HL-60(TB) leukemia): 4.48 µM | GI50 (SF-268 CNS): 1.73 µM | TGI (SF-268 CNS): 3.35 µM | GI50 (OVCAR-8 ovarian): 2.3 µM | TGI (OVCAR-8 ovarian): 5.3 µM | GI50 (M14 melanoma): 1.79 µM | TGI (M14 melanoma): 3.47 µM | GI50 (SNB-19 CNS): 1.8 µM | TGI (SNB-19 CNS): 3.59 µM | GI50 (BT-549 breast): 10.5 µM | TGI (BT-549 breast): 26.4 µM | GI50 (KM12 colon): 1.84 µM | TGI (KM12 colon): 3.48 µM | GI50 (ACHN renal): 1.81 µM | TGI (ACHN renal): 3.2 µM | GI50 (HS 578T breast): 1.86 µM | TGI (HS 578T breast): 3.98 µM | GI50 (UO-31 renal): 1.65 µM | TGI (UO-31 renal): 3.31 µM | GI50 (T-47D breast): 2.1 µM | TGI (T-47D breast): 5.09 µM | GI50 (SK-MEL-2 melanoma): 19.5 µM | TGI (SK-MEL-2 melanoma): 40.3 µM | GI50 (MCF7 breast): 1.77 µM | TGI (MCF7 breast): 3.6 µM | GI50 (K-562 leukemia): 2.22 µM | TGI (K-562 leukemia): 6.19 µM | GI50 (HOP-62 NSCLC): 1.8 µM | TGI (HOP-62 NSCLC): 3.67 µM | GI50 (SF-295 CNS): 1.79 µM | TGI (SF-295 CNS): 3.39 µM | GI50 (MDA-MB-231 breast): 1.79 µM | TGI (MDA-MB-231 breast): 3.51 µM | GI50 (SK-OV-3 ovarian): 11.3 µM | TGI (SK-OV-3 ovarian): 26.2 µM | GI50 (786-0 renal): 1.98 µM | TGI (786-0 renal): 3.72 µM | GI50 (HOP-92 NSCLC): 1.7 µM | TGI (HOP-92 NSCLC): 3.52 µM | GI50 (RPMI-8226 leukemia): 2.46 µM | TGI (RPMI-8226 leukemia): 5.51 µM | GI50 (MOLT-4 leukemia): 2.55 µM | TGI (MOLT-4 leukemia): 6.39 µM | GI50 (COLO 205 colon): 2.11 µM | TGI (COLO 205 colon): 4.62 µM | GI50 (CCRF-CEM leukemia): 2.71 µM | TGI (CCRF-CEM leukemia): 7.29 µM | GI50 (OVCAR-4 ovarian): 1.9 µM | TGI (OVCAR-4 ovarian): 3.64 µM
